Experimental data: US20230416291A1, “HIGH-PURITY ß-NICOTINAMIDE MONONUCLEOTIDE (NMN) AND METHOD FOR PRODUCING SAME” (MIRAILAB BIOSCIENCE INC., priority 2020, published 2023)
Blank lines part the entries; values can stand above or below the molecule they belong to.

Tests used:
[1] = Stability test on NMN produced by a conventional method (Comparative Examples); type: physicochemical
Description: Results of a stability test on NMN produced by a conventional method (method involving neither the step IV nor the step V according to the present invention) are shown as Comparative Examples in Table 2.

[2] = Stability of high-purity βNMN on preservation, purity by LC-UV area normalization; type: physicochemical; settings: for Purity, Average value: three samples
Procedure: In the area normalization method based on LC-UV, a NMN sample is dissolved in an appropriate amount of water and subjected to LC-UV measurement at a detection wavelength of 266 nm using an apparatus, for example, LC-30AD (manufactured by Shimadzu Corp.). The ratio (%) of the area of the main component to the total area of chromatogram peaks of the obtained sample can be regarded as the purity (%) of βNMN. In the area normalization method based on LC-UV, the high-purity βNMN obtained in the section (5) was dissolved in an appropriate amount of water and subjected to LC-UV measurement under the following conditions. • Apparatus name: LC-30AD (manufactured by Shimadzu Corp.) • Detection wavelength: 266 nm The ratio (%) of the area of the main component to the total area of chromatogram peaks of the obtained sample was regarded as the purity (%) of βNMN. As a result, the purity of the high-purity βNMN obtained in the section (5) was 99.2%. The high-purity βNMN obtained in the section (5) was preserved at 4° C., 25° C., or 40° C. and examined for its stability. Each sample was provided as three samples per condition. The purity of βNMN in each sample during preservation, 1 month later, 2 months later, and 3 months later was measured by the area normalization method based on LC-UV.

- Purity ([1]; 4° C., 1 day later): 97.92%
- Purity ([1]; 4° C., 2 days later): 97.78%
- Purity ([1]; 4° C., 3 days later): 97.60%
- Purity ([1]; 4° C., 7 days later): 97.57%
- Purity ([1]; 4° C., 15 days later): 97.54%
- Purity ([1]; 4° C., 30 days later): 97.26%
- Purity ([1]; 4° C., At start of preservation): 97.94%
- Purity ([1]; 25° C., 1 day later): 97.11%
- Purity ([1]; 25° C., 2 days later): 96.04%
- Purity ([1]; 25° C., 3 days later): 95.98%
- Purity ([1]; 25° C., 7 days later): 90.55%
- Purity ([1]; 25° C., 15 days later): 81.74%
- Purity ([1]; 25° C., 30 days later): 65.66%
- Purity ([1]; 25° C., At start of preservation): 97.94%
Structure (SMILES): NC(=O)c1ccc[n+]([C@@H]2O[C@H](COP(=O)([O-])O)[C@@H](O)[C@H]2O)c1 [NMN produced by a conventional method, nicotinamide mononucleotide]
- Stability in words ([1]; preserved at 4° C. for 30 days): able to maintain the purity obtained at the start of preservation for 30 days

- Purity maintained on preservation ([2]; for 3 months at any temperature of 4° C., 25° C., and 40° C.): ≥ 99%
- Purity, Average value ([2]; preserved at 4° C., 1 month later): 99.64%
- Purity, Average value ([2]; preserved at 4° C., 2 months later): 99.51%
- Purity, Average value ([2]; preserved at 4° C., 3 months later): 99.66%
- Purity, Average value ([2]; preserved at 4° C., During preservation): 99.69%
- Purity, Average value ([2]; preserved at 25° C., 1 month later): 99.26%
- Purity, Average value ([2]; preserved at 25° C., 2 months later): 99.45%
- Purity, Average value ([2]; preserved at 25° C., 3 months later): 99.57%
- Purity, Average value ([2]; preserved at 25° C., During preservation): 99.69%
- Purity, Average value ([2]; preserved at 40° C., 1 month later): 99.51%
- Purity, Average value ([2]; preserved at 40° C., 2 months later): 99.27%
- Purity, Average value ([2]; preserved at 40° C., 3 months later): 99.35%
- Purity, Average value ([2]; preserved at 40° C., During preservation): 99.69%
Structure (SMILES): NC(=O)c1ccc[n+]([C@@H]2O[C@H](COP(=O)([O-])O)[C@@H](O)[C@H]2O)c1 [high-purity βNMN, β-nicotinamide mononucleotide]
